Measured values as given in patent US12180193B2, “Accelerating fibrosarcoma protein degrading compounds and associated methods of use” (Arvinas Operations, Inc., priority 2020, dated 2024).

Tests used:
BRAF G466V = biological target: T1, BRAF G466V (Homo sapiens, UniProt P15056, G466V); test: Cellular assay of target protein degradation, T-Rex 293 cells stably transfected with HA-BRAF G466V (HA immunofluorescence, high content imaging); assay type: cell-based; conditions: T-Rex 293 HA-BRAF G466V; for DC50: half maximal degradation, read-out: BRaf G466V DC50; for Dmax: maximum degradation observed
T1 construct: expressed in transfected cells
T1 sequence (P15056 whole entry G466V): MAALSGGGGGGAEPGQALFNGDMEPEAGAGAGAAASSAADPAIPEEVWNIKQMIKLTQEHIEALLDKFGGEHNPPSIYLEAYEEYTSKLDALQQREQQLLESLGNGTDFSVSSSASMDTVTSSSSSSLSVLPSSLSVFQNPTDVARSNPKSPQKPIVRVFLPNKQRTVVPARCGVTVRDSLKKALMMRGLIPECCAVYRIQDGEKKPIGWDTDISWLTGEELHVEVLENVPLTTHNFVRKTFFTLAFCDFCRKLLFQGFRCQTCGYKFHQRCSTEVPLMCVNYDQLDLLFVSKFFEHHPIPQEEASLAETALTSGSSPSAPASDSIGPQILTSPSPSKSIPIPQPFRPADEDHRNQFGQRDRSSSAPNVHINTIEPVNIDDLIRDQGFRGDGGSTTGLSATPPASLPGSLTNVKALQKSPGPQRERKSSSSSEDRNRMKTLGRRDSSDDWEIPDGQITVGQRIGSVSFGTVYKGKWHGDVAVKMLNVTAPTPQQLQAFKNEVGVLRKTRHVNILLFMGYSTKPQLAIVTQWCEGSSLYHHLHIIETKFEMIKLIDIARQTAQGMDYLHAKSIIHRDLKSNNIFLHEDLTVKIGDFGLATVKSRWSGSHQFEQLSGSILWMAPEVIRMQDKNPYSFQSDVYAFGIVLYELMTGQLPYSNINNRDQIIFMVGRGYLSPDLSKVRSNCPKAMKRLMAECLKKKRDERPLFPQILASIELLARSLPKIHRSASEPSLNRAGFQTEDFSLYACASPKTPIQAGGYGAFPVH
Description: Protocol for a cellular assay of target protein degradation (T-Rex 293 cells). T-Rex 293 cells were purchased from Invitrogen (#R71007), and stably transfected with a pcDNA4/TO_HA-BRAF G466V construct, using 400 ug Zeocin for selection. G466V cells are plated in Dulbecco's Modified Eagle Medium (DMEM; Gibco #11965118) containing 10% fetal bovine serum (FBS; Gibco #16000044) and 0.75 ng/mL doxycycline (Selleckchem #4163) at a density of 5,000 cells/well in 50 μl on poly-D-lysine (PDL) coated, black clear bottom 96-well plates (Corning #354640) and incubated for 24 hours at 37° C. with 5% CO2. The following day 50 ul of tested compound was added at 2x concentration in DMEM with a final concentration ranging from 30 nM to 3 pM in 0.1% dimethylsulfoxide (DMSO), and incubated for 24 hours at 37° C. with 5% CO2. At the end of the experimental treatment, the media was flicked off and cells washed once with phosphate-buffered saline (PBS)++ (PBS with CaCl and MgCl) and gently replacing with 200 μl PBS++ per well. The PBS++ was removed and 50 uL 4% paraformaldehyde (PFA; EMS #15710) in PBS++ was added, and incubate at room temperature for 15 minutes. Cells were washed once with PBS++ and 50 uL 0.1% Triton X-100 (Fisher #BP151-500) in PBS++ was added. Plate was incubate for 5 minutes at room temperature. Cells were was once with PBS++. Cells were blocked with 100 uL Licor blocking buffer (Licor #927-50000) for 1 hour at room temperature. Next, 50 uL of HA antibody (CST #3724) at 1:1000 in Licor blocking buffer was added, and the plate incubate overnight at 4° C. The plates were parafilmed to prevent evaporation. Plate was washed three times with 200 uL PBS++. Fifty microliters of HCS secondary antibody solution [1:1000 Hoechst (Invitrogen #H3570), 1:1000 phalloidin (Invitrogen #A22287) and 1:5000 Alexa fluor (Invitrogen #A11008)] was added and incubated for 1 hour. Plate was wash three times with 200 uL PBS++, and imaged on a high content reader (ImageXpress Micro XLS, Molecular Devices).
(§1) The concentration of exemplary compound that leads to half maximal degradation (DC50) as well as the maximum degradation observed (Dmax, conventionally expressed as a percentage of control), which are below in Table 2 for the exemplary compounds of Table 1.

BRAF V600E = biological target: T2, BRAF V600E (Homo sapiens, UniProt P15056, V600E); test: Cellular assay of target protein degradation, T-Rex 293 cells stably transfected with HA-BRAF_V600E (HA immunofluorescence, high content imaging); assay type: cell-based; conditions: T-Rex 293 HA-BRAF V600E; for DC50: half maximal degradation, read-out: BRaf V600E DC50; for Dmax: maximum degradation observed
T2 construct: expressed in transfected cells
T2 sequence (P15056 whole entry V600E): as the sequence (P15056 whole entry G466V) above, with V466G, V600E counted along it
Description: Protocol for a cellular assay of target protein degradation (T-Rex 293 cells). T-Rex 293 cells were purchased from Invitrogen (#R71007), and stably transfected with a pcDNA4/TO_HA-BRAF_V600E construct, using 400 ug Zeocin for selection. V600e cells are plated in Dulbecco's Modified Eagle Medium (DMEM; Gibco #11965118) containing 10% fetal bovine serum (FBS; Gibco #16000044) and 1 ng/mL doxycycline (Selleckchem #4163) at a density of 5,000 cells/well in 50 μl on poly-D-lysine (PDL) coated, black clear bottom 96-well plates (Corning #354640) and incubated for 24 hours at 37° C. with 5% C02. The following day 50 ul of tested compound was added at 2x concentration in DMEM with a final concentration ranging from 1 μM to 0.1 nM in 0.1% dimethylsulfoxide (DMSO), and incubated for 24 hours at 37° C. with 5% CO2. At the end of the experimental treatment, the media was flicked off and cells washed once with phosphate-buffered saline (PBS)++ (PBS with CaCl and MgCl) and gently replacing with 200 μl PBS++ per well. The PBS++ was removed and 50 uL 4% paraformaldehyde (PFA; EMS #15710) in PBS++ was added, and incubate at room temperature for 15 minutes. Cells were washed once with PBS++ and 50 uL 0.1% Triton X-100 (Fisher #BP151-500) in PBS++ was added. Plate was incubate for 5 minutes at room temperature. Cells were was once with PBS++. Cells were blocked with 100 uL Licor blocking buffer (Licor #927-50000) for 1 hour at room temperature. Next, 50 uL of HA antibody (CST #3724) at 1:1000 in Licor blocking buffer was added, and the plate incubate overnight at 4° C. The plates were parafilmed to prevent evaporation. Plate was washed three times with 200 uL PBS++. Fifty microliters of HCS secondary antibody solution [1:1000 Hoechst (Invitrogen #H3570), 1:1000 phalloidin (Invitrogen #A22287) and 1:5000 Alexa fluor (Invitrogen #A11008)] was added and incubated for 1 hour. Plate was wash three times with 200 uL PBS++, and imaged on a high content reader (ImageXpress Micro XLS, Molecular Devices).
as §1

Row | Structure (SMILES) | DC50 (BRAF G466V) | Dmax (BRAF G466V) | DC50 (BRAF V600E) | Dmax (BRAF V600E)
1 | COc1cc([C@@H](O)CCN2CCN(c3ccc(-c4cnc5[nH]cc(C(=O)c6c(F)ccc(NS(=O)(=O)N7CC[C@@H](F)C7)c6F)c5c4)cc3)CC2)cc2c1C(=O)N([C@H]1CCC(=O)NC1=O)C2 (stereo in doubt) [Compound 295, (3R)-N-{3-[5-(4-{4-[(3S)-3-{2-[(3S)-2,6-dioxopiperidin-3-yl]-7-methoxy-1-oxo-2,3-dihydro-1H-isoindol-5-yl}-3-hydroxypropyl]piperazin-1-yl}phenyl)-1-pyrrolo[2,3-b]pyridine-3-carbonyl]-2,4-difluorophenyl}-3-fluoropyrrolidine-1-sulfonamide] | 1 to 10 nM | 35 to 70% | 50 to 500 nM | 35 to 70%
2 | C[C@@]12CN(CC3CCN(c4ccc5c(c4)CN(C4CCC(=O)NC4=O)C5=O)CC3)C[C@]1(C)CN(c1ccc(-c3cnc4[nH]cc(C(=O)c5c(F)ccc(NS(=O)(=O)N6CC[C@@H](F)C6)c5F)c4c3)cc1)C2 (stereo partly drawn) [Compound 2, (3R)-N-[3-(5-{4-[(3aR,6aS)-5-({1-[2-(2,6-dioxopiperidin-3-yl)-1-oxo-2,3-dihydro-1H-isoindol-5-yl]piperidin-4-yl}methyl)-3a,6a-dimethyl-octahydropyrrolo[3,4-c]pyrrol-2-yl]phenyl}-1H-pyrrolo[2,3-b]pyridine-3-carbonyl)-2,4-difluorophenyl]-3-fluoropyrrolidine-1-sulfonamide] | 10 to 30 nM | 35 to 70% | 5 to 50 nM | 35 to 70%
3 | O=C1CCC(N2Cc3cc(N4CC5(CCN(CC#Cc6ccc(-c7cnc8[nH]cc(C(=O)c9c(F)ccc(NS(=O)(=O)N%10CC[C@@H](F)C%10)c9F)c8c7)cc6)C5)C4)ccc3C2=O)C(=O)N1 (stereo partly drawn) [Compound 4, (3R)-N-(3-{5-[4-(3-{2-[2-(2,6-dioxopiperidin-3-yl)-1-oxo-2,3-dihydro-1H-isoindol-5-yl]-2,6-diazaspiro[3.4]octan-6-yl}prop-1-yn-1-yl)phenyl]-1H-pyrrolo [2,3-b]pyridine-3-carbonyl}-2,4-difluorophenyl)-3-fluoropyrrolidine-1-sulfonamide] | 1 to 10 nM | 35 to 70% | 50 to 500 nM | < 35%
4 | O=C1CCC(N2Cc3cc(N4CC(N5C[C@H]6C[C@@H]5CN6c5ccc(-c6cnc7[nH]cc(C(=O)c8c(F)ccc(NS(=O)(=O)N9CC[C@@H](F)C9)c8F)c7c6)cc5)C4)ccc3C2=O)C(=O)N1 (stereo partly drawn) [Compound 5, (3R)-N-[3-(5-{4-[(1R,4R)-5-{1-[2-(2,6-dioxopiperidin-3-yl)-1-oxo-2,3-dihydro-1H-isoindol-5-yl]azetidin-3-yl}-2,5-diazabicyclo[2.2.1]heptan-2-yl]phenyl}-1H-pyrrolo[2,3-b]pyridine-3-carbonyl)-2,4-difluorophenyl]-3-fluoropyrrolidine-1-sulfonamide] | 1 to 10 nM | 35 to 70% | > 500 nM | –
5 | COc1cc(N2CCC(CN3CCC4(CC3)CCN(c3ccc(-c5cnc6[nH]cc(C(=O)c7c(F)ccc(NS(=O)(=O)N8CC[C@@H](F)C8)c7F)c6c5)cc3)CC4)CC2)cc2c1C(=O)N(C1CCC(=O)NC1=O)C2 (stereo partly drawn) [Compound 6, (3R)-N-[3-(5-{4-[9-({1-[2-(2,6-dioxopiperidin-3-yl)-7-methoxy-1-oxo-2,3-dihydro-1H-isoindol-5-yl]piperidin-4-yl}methyl)-3,9-diazaspiro[5.5]undecan-3-yl]phenyl}-1H-pyrrolo[2,3-b]pyridine-3-carbonyl)-2,4-difluorophenyl]-3-fluoropyrrolidine-1-sulfonamide] | 1 to 10 nM | 35 to 70% | < 5 nM | 35 to 70%
6 | O=C1CCC(N2Cc3cc(N4CCC(CN5CCC6(CCN(c7ncc(-c8cnc9[nH]cc(C(=O)c%10c(F)ccc(NS(=O)(=O)N%11CC[C@@H](F)C%11)c%10F)c9c8)cn7)CC6)C5)CC4)ccc3C2=O)C(=O)N1 (stereo partly drawn) [Compound 96, (3R)-N-[3-(5-{2-[2-({1-[2-(2,6-dioxopiperidin-3-yl)-1-oxo-2,3-dihydro-1H-isoindol-5-yl]piperidin-4-yl}methyl)-2,8-diazaspiro[4.5]decan-8-yl]pyrimidin-5-yl}-1H-pyrrolo[2,3-b]pyridine-3-carbonyl)-2,4-difluorophenyl]-3-fluoropyrrolidine-1-sulfonamide] | – | – | < 5 nM | < 35%

Results, then the molecule that gave them:

Row | DC50 (BRAF G466V) | Dmax (BRAF G466V) | DC50 (BRAF V600E) | Dmax (BRAF V600E) | Structure (SMILES)
7 | 1 to 10 nM | 35 to 70% | 5 to 50 nM | 35 to 70% | O=C1CCC(N2Cc3cc(N4CC5(CC(Oc6ccc(-c7cnc8[nH]cc(C(=O)c9c(F)ccc(NS(=O)(=O)N%10CC[C@@H](F)C%10)c9F)c8c7)cc6)C5)C4)ccc3C2=O)C(=O)N1 (stereo partly drawn) [Compound 1, (3R)-N-(3-{5-[4-({2-[2-(2,6-dioxopiperidin-3-yl)-1-oxo-2,3-dihydro-1H-isoindol-5-yl]-2-azaspiro[3.3]heptan-6-yl}oxy)phenyl]-1H-pyrrolo[2,3-b]pyridine-3-carbonyl}-2,4-difluorophenyl)-3-fluoropyrrolidine-1-sulfonamide]
8 | 1 to 10 nM | > 70% | 5 to 50 nM | 35 to 70% | O=C1CCC(N2Cc3cc(N4CCC(CN5C[C@H]6CCN(c7ccc(-c8cnc9[nH]cc(C(=O)c%10c(F)ccc(NS(=O)(=O)N%11CC[C@@H](F)C%11)c%10F)c9c8)cc7)C[C@H]6C5)CC4)ccc3C2=O)C(=O)N1 (stereo partly drawn) [Compound 3, (3R)-N-[3-(5-{4-[(3aR,7aS)-2-({1-[2-(2,6-dioxopiperidin-3-yl)-1-oxo-2,3-dihydro-1H-isoindol-5-yl)piperidin-4-yl}methyl)-octahydro-1H-pyrrolo[3,4-c]pyridin-5-yl]phenyl}-1H-pyrrolo[2,3-b]pyridine-3-carbonyl)-2,4-difluorophenyl]-3-fluoropyrrolidine-1-sulfonamide]
9 | 1 to 10 nM | > 70% | 5 to 50 nM | 35 to 70% | O=C1CCC(N2Cc3cc(N4CC(CN5CCC(c6ccc(-c7cnc8[nH]cc(C(=O)c9c(F)ccc(NS(=O)(=O)N%10CC[C@@H](F)C%10)c9F)c8c7)cc6)CC5)C4)ccc3C2=O)C(=O)N1 (stereo partly drawn) [Compound 7, (3R)-N-[3-(5-{4-[1-({1-[2-(2,6-dioxopiperidin-3-yl)-1-oxo-2,3-dihydro-1H-isoindol-5-yl]azetidin-3-yl}methyl)piperidin-4-yl]phenyl}-1H-pyrrolo[2,3-b]pyridine-3-carbonyl)-2,4-difluorophenyl]-3-fluoropyrrolidine-1-sulfonamide]
